Here are results for six compounds from article PMC3030600, “Characterizing Ligand-Gated Ion Channel Receptors with Genetically Encoded Ca^++ Sensors” (PLoS ONE, 2011).

Where two headings read alike, the source gives them in different places.

Test [1] addresses T1, mouse 5-HT3A serotonin receptors (Mus musculus, UniProt P23979).
T1 sequence (P23979 24-489): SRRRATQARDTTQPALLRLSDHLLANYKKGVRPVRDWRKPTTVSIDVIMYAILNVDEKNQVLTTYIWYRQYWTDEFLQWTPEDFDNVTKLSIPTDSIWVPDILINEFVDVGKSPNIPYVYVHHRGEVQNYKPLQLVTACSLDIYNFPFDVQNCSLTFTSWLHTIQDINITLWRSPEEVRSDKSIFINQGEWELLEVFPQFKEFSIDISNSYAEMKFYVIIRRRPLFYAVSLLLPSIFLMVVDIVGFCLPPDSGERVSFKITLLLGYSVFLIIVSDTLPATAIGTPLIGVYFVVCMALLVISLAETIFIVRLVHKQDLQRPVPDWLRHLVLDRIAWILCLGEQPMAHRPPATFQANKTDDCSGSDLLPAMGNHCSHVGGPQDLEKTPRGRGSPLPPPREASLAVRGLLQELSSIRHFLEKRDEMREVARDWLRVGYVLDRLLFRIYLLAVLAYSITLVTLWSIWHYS
The test is described as follows: 5-HT3A CNiFER FRET Flex assay. It counts as cell-based. The following applies: for mode of antagonism / Schild Slope: vs 5-HT; for Schild Slope: in aCSF. The method, then:
Cells were cultured in 10 cm plates with DMEM (Mediatech, Manassas, VA) supplemented with 10% FBS (Gemini Bio-Products, West Sacramento, CA; Atlanta Biologicals, Lawrenceville, GA) and 1% Glutamine (Invitrogen), and incubated at 37°C with 10% CO2. Cells were selected at ∼70% confluency and plated the day before using 100 µl volumes per well into black, transparent flat-bottom, TC treated 96-well plates (Thermo, Waltham, MA; E&K, Greiner Campbell, CA). Plates were removed from the incubator the next day and the media was replaced with 100 µl of artificial cerebral spinal fluid (aCSF) [containing 121 mM NaCl, 2.4 mM Ca^2+, 1.3 mM Mg^2+, 5 mM KCl, 26 mM NaHCO3, 1.2 mM Na2HPO4, 10 mM glucose, 5 mM Hepes Na^+, pH 7.4]. For all assays performed on α7-nAChR CNiFERs 10 µM of the PAM, PNU-120596 (Tocris, Ellisville, MO), was prepared in aCSF. In the case of antagonist measurements, antagonists, at 1.5 times the final desired concentration, were prepared in aCSF. For non-CNiFER cell lines, Blue Membrane Potential dye (Molecular Devices, Sunnyvale, CA) was prepared in aCSF and diluted 2 fold the recommended dilution. Plates were incubated for at least 30 min at 37°C and 10% CO2 for any assay that included antagonist, dye, or PAM modification to the aCSF. Following incubation, plates were removed and placed into the Molecular Devices FlexStation III instrument and run at 37°C. Injection rates varied between […], and 50 µl of the specified agonist prepared at 3x final concentration in the aforementioned aCSF solution was injected after 30 s of baseline measurement. […] All wells were replicated (two or three times) in the same plate. Mean peak FRET ratios calculated from replicates were exported and plotted against agonist concentrations using Graphpad Prism 4 (Carlsbad, CA). A sigmoidal concentration-response (variable slope) regression of the mean peak FRET ratios was fit to generate a concentration-response curve and obtain an EC50 value.
To measure potencies of competitive antagonists, three concentration-response curves with different antagonist concentrations were compared to a control curve (without antagonist). Mean FRET responses generated concentration response curves, and antagonist dependent shifts in EC50 values were used to calculate dose ratios (DR), as a concentration ratio of EC50'/EC50 for the specified agonist (where EC50' is in the presence of the antagonist at the specified concentration). DRs were used to produce a Schild regression plot for analysis of competitive antagonism and generate a Ka value. Analysis consisted of potting Log (DR-1) against –Log [Antagonist]. The Schild Ka value for competitive antagonists was calculated from the x-intercept at y = 0, as the –Log (Ka), [38]. All errors reported are arithmetic standard deviations unless otherwise noted.

The target of test [2] is human α7 nicotinic acetylcholine receptors (Homo sapiens, UniProt P36544). The test can be described thus: cell-based. It counts as cell-based.
For test [3], the system named is α7/5-HT3A. Particulars: cited from earlier work; for EC50: Ca2+ dye (Fluo-3-AM) on HEK293 cells expressing human receptors, read-out: EC50, α7/5-HT3A (non-CNiFER).
Test [4] deals with α7-nAChR (Homo sapiens, UniProt P36544). Particulars: read-out: EC50, α7-nAChR (non-CNiFER); potential-sensitive dye, human receptors.
The subject of test [5] is α7-nAChR. The following applies: cited from earlier work.

Chain of human α7 nicotinic acetylcholine receptors (P36544 23-502): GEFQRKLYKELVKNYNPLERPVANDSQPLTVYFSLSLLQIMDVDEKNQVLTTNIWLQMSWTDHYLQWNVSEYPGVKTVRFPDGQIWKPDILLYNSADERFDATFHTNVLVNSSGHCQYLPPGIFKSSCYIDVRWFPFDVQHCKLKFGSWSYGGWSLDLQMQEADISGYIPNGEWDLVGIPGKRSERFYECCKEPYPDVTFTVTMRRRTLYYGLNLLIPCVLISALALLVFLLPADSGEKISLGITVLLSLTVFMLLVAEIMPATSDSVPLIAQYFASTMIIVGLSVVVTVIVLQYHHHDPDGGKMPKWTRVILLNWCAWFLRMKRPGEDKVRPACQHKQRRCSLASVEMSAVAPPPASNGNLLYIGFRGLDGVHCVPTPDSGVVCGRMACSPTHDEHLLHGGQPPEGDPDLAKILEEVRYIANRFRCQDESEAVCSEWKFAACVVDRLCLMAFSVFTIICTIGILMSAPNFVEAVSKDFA
Chain of α7-nAChR (Homo sapiens, UniProt P36544) (P36544 23-502): as above

On to `Cc1nccn1CC1CCc2c(c3ccccc3n2C)C1=O` (stereo not shown) [Ondansetron, ondansetron], for which the Kd in test [1] (read-out: CNiFER Ka (Schild)) was found to be 1.6 ± 0.9 nM. Besides, in test [1], the mode of antagonism entry is “near competitive block” and the “Schild Slope” value is reported as −1.3±0.04. Moreover, the “Schild Slope” value in test [1] (listed as ondansetron) was -1.3±0.04.
With `CN1[C@@H]2CC[C@H]1C[C@@H](OC(=O)c1c[nH]c3ccccc13)C2` [tropisetron], the mode of antagonism entry in test [1] was “greater non-competitive component”.
With `NCCc1c[nH]c2ccc(O)cc12` [5-HT, 5-Hydroxytryptamine], the Hill coefficient (in general, the slope factor of the fitted curve) in test [1] (5-HT3A CNiFER concentration-response (Figure 6A)) came out at 2.6.
In the case of `Clc1ccc(C2CC3CCC2N3)cn1` (racemic) [(±)-Epibatidine, (±)-epibatidine], the EC50 is 28 nM in test [2] (read-out: EC50, α7-nAChR CNiFER); 3.6 nM in test [2] (read-out: EC50 of agonist curve); 180 ± 20 nM in test [3]; 17 ± 2.6 nM in test [4].
As to (−)-Nicotine, the EC50 in test [3] is 19100 nM.
As for `CCN1C[C@]2(COC(=O)c3ccccc3N3C(=O)C[C@H](C)C3=O)CC[C@H](OC)[C@@]34[C@@H]5C[C@H]6[C@H](OC)[C@@H]5[C@](O)(C[C@@H]6OC)[C@@](O)([C@@H](OC)[C@H]23)[C@@H]14` [MLA, methyllycaconitine], in test [2], the Kd came to 3.2 nM, the “Schild Slope” value is −1.2±0.3 and the “mode of antagonism (Schild analysis)” value was “competitively”. In addition, the “half time for dissociation” value in test [5] is 2.3 min. In test [3] (read-out: IC50 (non-CNiFER)), the IC50 (as a rule, the concentration that gives 50% inhibition) is 36 ± 13 nM.
